Legend:
mosquito larvae = assay: Feeding TMOF and its analogue peptides to mosquito larvae (LD50); assay type: in vivo, Aedes aegypti; details: 100 μl microtiter plates, 7 days, diet of autoclaved yeast (1 mg/ml)
Text: TMOF can traverse the gut epithelium, enter the hemolymph and bind a gut receptor (Borovsky, D. and F. Mahmood (1995) “Feeding the mosquito Aedes aegypti with TMOF and its analogs; effect on trypsin biosynthesis and egg development,” Regulatory Peptides 57:273-281.; Borovsky, D., C. A. Powell, J. K. Nayar, J. E. Blalock, and T. K. Hayes (1994) “Characterization and localization of mosquito-gut receptors for trypsin modulating oostatic factor using complementary peptide immunochemistry” FASEB J. 8:350-355.). […] This characteristic permits testing of TMOF and its analogs by feeding them to mosquito and other pest larvae. To determine whether truncated TMOF peptides have an effect on larval growth and development, a series of peptides were synthesized and tested by feeding them to mosquito larvae at concentrations of 0.5 to 5.0 mg/ml (Table 1). Individual, newly hatched Aedes aegypti larvae were maintained in separate microtiter wells on a diet of autoclaved yeast (1 mg/ml). The diet was supplemented with TMOF peptides (Table 1). An identical number of larvae which were maintained on yeast served as a control. […] All control groups survived and larval growth and development was normal. Since larvae swallow only a small portion of the yeast particles that adsorbed the peptides, it is assumed that approximately 1 to 20 ng are taken orally at the high concentrations.

[1] = tested on: fourth instar Heliothis virescens; assay: Feeding TMOF analogs to fourth instar H. virescens: larval weight; assay type: in vivo; details: for larval weight and trypsin biosynthesis (in words): fourth instar larvae fed TMOF analog peptides for 5 days; for Weight Gain / Weight mg ± S.E.M. End: fourth instar larvae fed synthetic food and 0.8 mg of TMOF analogs for 5 days
Protocol: In both cases a reduction in weight gain and trypsin inhibition was noted (Tables 3 and 4).
(§1) Larvae were fed for 5 to 14 days and larval weight and trypsin activity were measured at the end of the experimental periods. […] When first instar larvae were fed for 14 days on analogs 15 and 16 (Table 4), an 18% and 26% reduction in weight was observed.

[2] = tested on: first instar H. virescens larvae; assay: Feeding of first instar H. virescens on TMOF analogs for 14 days; assay type: in vivo, Heliothis virescens; details: first instar larvae fed individually 1.6 µg of TMOF analogs for 14 days
trypsin biosynthesis [3] = assay: Feeding TMOF analogs to fourth instar H. virescens: gut trypsin biosynthesis ([3H]DFP); assay type: in vivo, Heliothis virescens; details: guts of fourth instar larvae after 5 days feeding on 0.8 mg of TMOF analogs
Protocol: as §1

trypsin biosynthesis [4] = assay: Injecting TMOF-R analogues into second instar Heliothis virescens: trypsin biosynthesis (BApNA); assay type: in vivo; details: second instar larvae, 24 hours after injection
Protocol: TMOF analogues (5 to 8 amino acids in length, and polymers of these analogues) in which Arg was added at the C-terminus were evaluated to determine their effect on larval growth and development. A series of analogues were synthesized and tested by feeding them to mosquito larvae at concentrations of (0.5 to 5.0 mg/ml; Table 4). Concentrations of 2.0 to 0.065 mg/ml were used to feed mosquito larvae and calculate the Lethal Dose at 50% mortality (LD50; Table 4) of the TMOF analogues. […] In both cases larval death and trypsin biosynthesis inhibition was noted (Table 4 and 5). […] The advantage of using short analogues connected by Arg is that they can be digested in the gut into short TMOF analogues that can penetrate the midgut much faster than longer analogues.
Individual second instar larvae of H. virescens were injected with TMOF-R analogues (10 to 0.25 μg per larva) and maintained in separate plastic cups on artificial diet. Twenty-four hours after the injections 3 groups of larvae (3 per group) were assayed for trypsin biosynthesis using BApNA (trypsin specific substrate; Table 5).

[5] = tested on: first instar larvae S. exigua; assay: Inhibition of Spodoptera exigua larval growth by feeding of TMOF; assay type: in vivo
Protocol: The x-axis represents the TMOF concentration and the y-axis represents percentage of growth inhibition.
Individual, first instar larvae S. exigua were maintained in separate petri dishes and were fed on artificial diet blocks of 50 mg on which different concentrations of TMOF (0 to 100 μg) were adsorbed. Larvae were fed for 6 days and larval length was measured every 24 hours and compared with controls that were not fed TMOF. Each experiment was repeated 10 times.

## YDA (TMOF peptide) [36]
Mosquito larvae
  LD50 mM ± S.E.M.: 3 1.6 ± 0.13 mM

## YDAAP (TMOF peptide) [37]
Mosquito larvae
  LD50 mM ± S.E.M.: 3 1.0 ± 0.18 mM
[1]
  larval weight and trypsin biosynthesis (in words): Reductions in larval weight and trypsin biosynthesis were observed
  Weight Gain: 179 mg
  Weight mg ± S.E.M. End: 217 ± 9.5 mg
[2]
  Number of Dead Larvae: 0
  Weight (mg) ± S.E.M.: 133 ± 7 mg
  Weight Reduction (%) ± S.E.M.: 18 ± 1%
[2]; listed as 15
  Weight Reduction (%) ± S.E.M.: 18%
Trypsin biosynthesis [3]
  Inhibition (% ± S.E.M.) of trypsin biosynthesis: 17 ± 1.6%
  Trypsin μg ± S.E.M.: 2.1 ± 0.2 µg

## YDF (TMOF peptide) [38]
Mosquito larvae
  LD50 mM ± S.E.M.: 3 0.97 ± 0.11 mM

## YDFAP (TMOF peptide) [39]
Mosquito larvae
  LD50 mM ± S.E.M.: 3 0.74 ± 0.13 mM
[1]
  Weight Gain: 164 mg
  Weight mg ± S.E.M. End: 201 ± 12 mg
[2]
  Number of Dead Larvae: 1
  Weight (mg) ± S.E.M.: 121 ± 7 mg
  Weight Reduction (%) ± S.E.M.: 26 ± 1.5%
Trypsin biosynthesis [3]
  Inhibition (% ± S.E.M.) of trypsin biosynthesis: 19 ± 1.5%
  Trypsin μg ± S.E.M.: 2.1 ± 0.2 µg

## YDG (TMOF peptide) [40]
Mosquito larvae
  LD50 mM ± S.E.M.: 3 0.95 ± 0.11 mM

## YDLAP (TMOF peptide) [41]
Mosquito larvae
  LD50 mM ± S.E.M.: 3 0.6 ± 0.05 mM

## YDP (TMOF peptide) [42]
Mosquito larvae
  LD50 mM ± S.E.M.: 5 2.3 ± 0.4 mM
[1]
  Weight Gain: 186.3 mg
  Weight mg ± S.E.M. End: 223.4 ± 16 mg
[2]
  Number of Dead Larvae: 0
  Weight (mg) ± S.E.M.: 157 ± 10 mg
  Weight Reduction (%) ± S.E.M.: 4 ± 0.2%
Trypsin biosynthesis [3]
  Inhibition (% ± S.E.M.) of trypsin biosynthesis: 19 ± 3.2%
  Trypsin μg ± S.E.M.: 2.1 ± 0.3 µg

## YDPAA (TMOF peptide) [55]
Mosquito larvae
  LD50 mM ± S.E.M.: 3 1.6 ± 0.13 mM

## YDPAF (TMOF peptide) [44]
Mosquito larvae
  LD50 mM ± S.E.M.: 3 0.33 ± 0.2 mM

## YDPAFR (TMOF-R analogue peptide) [58]
Trypsin biosynthesis [4]; 10 μg/injection
  Inhibition (% ± S.E.M.) of trypsin biosynthesis: 0 ± 0%

## YDPAL (TMOF peptide) [45]
Mosquito larvae
  LD50 mM ± S.E.M.: 3 0.52 ± 0.03 mM

## YDPAP6 (YDPAPPPPPP; listed as Aedes aegypti) [reference compound]
Mosquito larvae
  LD50 mM ± S.E.M.: 3 0.2 ± 0.02 mM
[5]; first instar S. exigua fed TMOF (0 to 100 μg) adsorbed on 50 mg artificial diet blocks for 6 days
  larval growth (larval length) compared with controls: did not grow as fast as the controls
[5]; first instar S. exigua, 50 mg diet blocks, 6 days
  amount of TMOF fed at which maximum growth inhibition occurred: 100 µg
Trypsin biosynthesis [4]; 0.25 μg/injection
  Inhibition (% ± S.E.M.) of trypsin biosynthesis: 19.5 ± 0.7%
Trypsin biosynthesis [4]; 0.5 μg/injection
  Inhibition (% ± S.E.M.) of trypsin biosynthesis: 11 ± 1%
Trypsin biosynthesis [4]; 1 μg/injection
  Inhibition (% ± S.E.M.) of trypsin biosynthesis: 25 ± 2%
Trypsin biosynthesis [4]; 10 μg/injection
  Inhibition (% ± S.E.M.) of trypsin biosynthesis: 56%

## YDPAP (TMOF peptide) [11]
Mosquito larvae
  LD50 mM ± S.E.M.: 3 1.64 ± 0.03 mM

## YDPAPR (TMOF-R analogue peptide) [57]
Trypsin biosynthesis [4]; 0.25 μg/injection
  Inhibition (% ± S.E.M.) of trypsin biosynthesis: 11 ± 1%
Trypsin biosynthesis [4]; 0.5 μg/injection
  Inhibition (% ± S.E.M.) of trypsin biosynthesis: 14 ± 1%
Trypsin biosynthesis [4]; 1 μg/injection
  Inhibition (% ± S.E.M.) of trypsin biosynthesis: 31.5 ± 2%
Trypsin biosynthesis [4]; 10 μg/injection
  Inhibition (% ± S.E.M.) of trypsin biosynthesis: 53 ± 25%

## YDPAR (TMOF-R analogue peptide) [59]
Trypsin biosynthesis [4]; 0.5 μg/injection
  Inhibition (% ± S.E.M.) of trypsin biosynthesis: 1 ± 0.07%
Trypsin biosynthesis [4]; 1 μg/injection
  Inhibition (% ± S.E.M.) of trypsin biosynthesis: 39 ± 2%
Trypsin biosynthesis [4]; 10 μg/injection
  Inhibition (% ± S.E.M.) of trypsin biosynthesis: 33.5 ± 9%

## YDPFP (TMOF peptide) [47]
Mosquito larvae
  LD50 mM ± S.E.M.: 4 1.7 ± 0.4 mM

## YDPGP (TMOF peptide) [48]
Mosquito larvae
  LD50 mM ± S.E.M.: 5 1.1 ± 0.18 mM
[1]
  larval weight and trypsin biosynthesis (in words): Reductions in larval weight and trypsin biosynthesis were observed
  Weight Gain: 163.1 mg
  Weight mg ± S.E.M. End: 199.8 ± 11 mg
[2]
  Number of Dead Larvae: 2
  Weight (mg) ± S.E.M.: 153 ± 10 mg
  Weight Reduction (%) ± S.E.M.: 6 ± 0.4%
[2]; listed as 16
  Weight Reduction (%) ± S.E.M.: 26%
Trypsin biosynthesis [3]
  Inhibition (% ± S.E.M.) of trypsin biosynthesis: 17 ± 1%
  Trypsin μg ± S.E.M.: 2.1 ± 0.1 µg

## YDPLP (TMOF peptide) [49]
Mosquito larvae
  LD50 mM ± S.E.M.: 3 1.5 ± 0.04 mM

## YEPAP (TMOF peptide) [50]
Mosquito larvae
  LD50 mM ± S.E.M.: 3 0.35 ± 0.02 mM

## YFPAP (TMOF peptide) [51]
Mosquito larvae
  LD50 mM ± S.E.M.: 3 0.64 ± 0.03 mM

## YNPAP (TMOF peptide) [52]
Mosquito larvae
  LD50 mM ± S.E.M.: 3 0.55 ± 0.03 mM

## YSF (TMOF peptide) [53]
Mosquito larvae
  LD50 mM ± S.E.M.: 3 1.08 ± 0.12 mM

## YSPAP (TMOF peptide) [54]
Mosquito larvae
  LD50 mM ± S.E.M.: 3 1.4 ± 0.03 mM
[1]
  larval weight and trypsin biosynthesis (in words): Reductions in larval weight and trypsin biosynthesis were observed
  Weight Gain: 151 mg
  Weight mg ± S.E.M. End: 188 ± 10.6 mg
[2]
  Number of Dead Larvae: 0
  Weight (mg) ± S.E.M.: 168 ± 11 mg
  Weight Reduction (%) ± S.E.M.: 0%
Trypsin biosynthesis [3]
  Inhibition (% ± S.E.M.) of trypsin biosynthesis: 19 ± 2%
  Trypsin μg ± S.E.M.: 2.0 ± 0.2 µg

Source: patent US6635265B1, “Materials and methods useful for the control of insect larvae” (University of Florida Research Foundation, Inc., priority 1999, dated 2003)
